Structures can show the parent of a compound that is named as a salt.
Target: T1, Full length human recombinant PIKFYVE (Homo sapiens, UniProt Q9Y2I7)
T1 construct: Full length human recombinant PIKFYVE; purchased Carna Biosciences (Kobe, Japan); host or cells: baculovirus expression system
Assay: Inhibition of PIKfyve (microfluidic electrophoresis kinase assay, PI3P/PS substrate)
Type: biochemical
Conditions: 12 concentrations
Description: Full length human recombinant PIKFYVE expressed in baculovirus expression system as N-terminal GST-fusion protein (265 kDa) was obtained from Carna Biosciences (Kobe, Japan). The kinase substrate was prepared by mixing and sonicating fluorescently-labeled phosphatidylinositol 3-phosphate (PI3P) with phospho-L-serine (PS) at a 1:10 ratio in 50 mM HEPES buffer pH 7.5.
The kinase reactions were assembled in 384-well plates (Greiner) in a total volume of […] as follows. Kinase protein was pre-diluted in an assay buffer comprising 25 mM HEPES, pH 7.5, 1 mM DTT, 2.5 mM MgCl2, and 2.5 mM MnCl2, and 0.005% Triton X-100, and dispensed into a 384-well plate (10 μL per well). Test compounds were serially pre-diluted in DMSO and added to the protein samples by acoustic dispensing (Labcyte Echo). The concentration of DMSO was equalized to 1% in all samples. All test compounds were tested at 12 concentrations. Apilimod was used as a reference compound and was tested in identical manner in each assay plate. Control samples (0%-inhibition, in the absence of inhibitor, DMSO only) and 100%-inhibition (in the absence of enzyme) were assembled in replicates of four and were used to calculate %-inhibition in the presence of compounds. The reactions were initiated by addition of 10 μL of 2×PI3P/PS substrate supplemented with ATP. The final concentration of enzyme was 2 nM, the final concentration of ATP was […], and the final concentration of PI3P/PS substrate was 1 μM (PI3P). The kinase reactions were allowed to proceed for 3 h at room temperature. Following incubation, the reactions were quenched by addition of […] of termination buffer (100 mM HEPES, pH 7.5, 0.01% Triton X-100, 20 mM EDTA). Terminated plates were analyzed on a microfluidic electrophoresis instrument (Caliper LabChip® 3000, Caliper Life Sciences/Perkin Elmer). The change in the relative fluorescence intensity of the PI(3)P substrate and PI(3,5)P product peaks was measured. The activity in each test sample was determined as the product to sum ratio (PSR): P/(S+P), where P is the peak height of the product, and S is the peak height of the substrate. Percent inhibition (Pinh) was determined using the following equation:
Pinh=(PSR0% inh−PSRcompound)/(PSR0% inh−PSR100% inh)*100
in which PSRcompound is the product/sum ratio in the presence of compound, PSR0% inh is the product/sum ratio in the absence of compound, and the PSR100% inh is the product/sum ratio in the absence of the enzyme.

T1 sequence (Q9Y2I7 whole entry): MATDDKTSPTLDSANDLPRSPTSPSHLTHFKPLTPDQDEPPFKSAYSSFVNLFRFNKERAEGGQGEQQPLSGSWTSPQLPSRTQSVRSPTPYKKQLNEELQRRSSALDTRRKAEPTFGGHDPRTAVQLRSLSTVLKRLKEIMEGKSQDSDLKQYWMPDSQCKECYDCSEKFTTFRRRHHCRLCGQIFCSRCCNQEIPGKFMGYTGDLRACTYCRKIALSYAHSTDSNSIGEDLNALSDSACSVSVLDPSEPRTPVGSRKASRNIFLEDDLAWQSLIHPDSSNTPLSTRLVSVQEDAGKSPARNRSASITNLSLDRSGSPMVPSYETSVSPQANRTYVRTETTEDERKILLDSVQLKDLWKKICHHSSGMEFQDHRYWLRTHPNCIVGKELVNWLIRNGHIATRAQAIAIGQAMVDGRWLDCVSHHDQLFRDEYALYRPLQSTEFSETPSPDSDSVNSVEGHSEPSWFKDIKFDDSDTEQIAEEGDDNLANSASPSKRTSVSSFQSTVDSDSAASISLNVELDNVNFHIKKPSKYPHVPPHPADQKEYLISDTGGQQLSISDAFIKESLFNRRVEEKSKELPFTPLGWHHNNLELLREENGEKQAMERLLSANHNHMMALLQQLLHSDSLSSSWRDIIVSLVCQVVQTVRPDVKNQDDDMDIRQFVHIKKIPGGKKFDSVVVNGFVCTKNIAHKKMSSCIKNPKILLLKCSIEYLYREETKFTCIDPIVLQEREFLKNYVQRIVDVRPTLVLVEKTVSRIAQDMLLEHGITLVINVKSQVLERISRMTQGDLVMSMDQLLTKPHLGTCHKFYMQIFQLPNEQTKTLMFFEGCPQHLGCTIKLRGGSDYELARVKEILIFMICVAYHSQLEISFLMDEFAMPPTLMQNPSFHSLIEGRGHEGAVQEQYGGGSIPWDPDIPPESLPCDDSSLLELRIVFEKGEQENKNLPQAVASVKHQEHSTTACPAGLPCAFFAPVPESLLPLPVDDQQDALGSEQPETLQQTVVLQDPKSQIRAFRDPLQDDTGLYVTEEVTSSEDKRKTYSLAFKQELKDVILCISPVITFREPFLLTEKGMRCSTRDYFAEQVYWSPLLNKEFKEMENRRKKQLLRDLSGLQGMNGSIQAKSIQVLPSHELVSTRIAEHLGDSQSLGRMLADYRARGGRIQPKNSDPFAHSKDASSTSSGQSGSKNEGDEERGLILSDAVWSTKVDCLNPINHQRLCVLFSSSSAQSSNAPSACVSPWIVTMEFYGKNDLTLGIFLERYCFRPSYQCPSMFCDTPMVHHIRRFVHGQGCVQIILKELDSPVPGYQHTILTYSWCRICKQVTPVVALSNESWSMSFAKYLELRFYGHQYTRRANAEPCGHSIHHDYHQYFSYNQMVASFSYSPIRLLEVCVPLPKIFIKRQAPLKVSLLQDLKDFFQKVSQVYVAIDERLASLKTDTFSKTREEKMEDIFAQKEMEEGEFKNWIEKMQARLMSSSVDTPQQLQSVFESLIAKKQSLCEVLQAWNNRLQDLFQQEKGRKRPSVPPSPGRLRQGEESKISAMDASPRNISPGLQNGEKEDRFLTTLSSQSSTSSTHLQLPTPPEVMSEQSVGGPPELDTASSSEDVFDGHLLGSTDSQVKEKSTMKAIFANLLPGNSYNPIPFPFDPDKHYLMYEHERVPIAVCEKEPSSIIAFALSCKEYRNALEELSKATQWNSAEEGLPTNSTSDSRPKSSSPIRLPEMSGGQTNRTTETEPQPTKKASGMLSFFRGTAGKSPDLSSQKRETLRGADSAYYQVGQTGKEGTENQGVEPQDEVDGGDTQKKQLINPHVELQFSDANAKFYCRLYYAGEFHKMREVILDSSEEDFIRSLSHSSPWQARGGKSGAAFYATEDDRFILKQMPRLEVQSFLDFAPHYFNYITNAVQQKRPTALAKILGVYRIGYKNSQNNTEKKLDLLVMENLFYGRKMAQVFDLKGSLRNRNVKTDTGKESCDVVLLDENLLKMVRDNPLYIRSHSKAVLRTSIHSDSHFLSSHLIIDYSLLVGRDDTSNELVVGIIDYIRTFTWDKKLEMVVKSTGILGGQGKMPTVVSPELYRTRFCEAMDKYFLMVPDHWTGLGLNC

Structure (SMILES)	IC50
Cc1ccccc1-c1cc(Nc2nc(N3CCOCC3)c3oc(-c4ccncc4)cc3n2)[nH]n1 [Compound 2, 4-morpholino-N-[5-(o-tolyl)-1H-pyrazol-3-yl]-6-(4-pyridyl)furo[3,2-d]pyrimidin-2-amine, hydrogen chloride]	0.0648 µM
Cc1ccc(-c2cc(Nc3nc(N4CCOCC4)c4oc(-c5ccncc5)cc4n3)[nH]n2)cc1 [Compound 4, 4-morpholino-N-[5-(p-tolyl)-1H-pyrazol-3-yl]-6-(4-pyridyl)furo[3,2-d]pyrimidin-2-amine, hydrogen chloride]	0.0309 µM
Cc1cc(Nc2nc(N3CCOCC3)c3oc(-c4ccncc4)cc3n2)[nH]n1 [Compound 5, N-(5-methyl-1H-pyrazol-3-yl)-4-morpholino-6-(4-pyridyl)furo[3,2-d]pyrimidin-2-amine, hydrogen chloride]	0.279 µM
c1cc(-c2cc(Nc3nc(N4CCOCC4)c4oc(-c5ccncc5)cc4n3)[nH]n2)ccn1 [Compound 6, 4-morpholino-6-(4-pyridyl)-N-[5-(4-pyridyl)-1H-pyrazol-3-yl]furo[3,2-d]pyrimidin-2-amine, hydrogen chloride]	0.0446 µM
Fc1cccc(-c2cc(Nc3nc(N4CCOCC4)c4occc4n3)[nH]n2)c1 [Compound 7, N-[5-(3-fluorophenyl)-1H-pyrazol-3-yl]-4-morpholino-furo[3,2-d]pyrimidin-2-amine, hydrogen chloride]	0.451 µM
Cc1cccc(-c2cc(Nc3nc(N4CCOCC4)c4occc4n3)[nH]n2)c1 [Compound 8, 4-morpholino-N-[5-(m-tolyl)-1H-pyrazol-3-yl]furo[3,2-d]pyrimidin-2-amine, hydrogen chloride]	0.0595 µM
Cc1cc(Nc2nc(N3CCOCC3)c3occc3n2)[nH]n1 [Compound 9, N-(5-methyl-1H-pyrazol-3-yl)-4-morpholino-furo[3,2-d]pyrimidin-2-amine, hydrogen chloride]	> 10 µM
c1cc(-c2cc(Nc3nc(N4CCOCC4)c4occc4n3)[nH]n2)ccn1 [Compound 10, 4-morpholino-N-(3-(pyridin-4-yl)-1H-pyrazol-5-yl)furo[3,2-d]pyrimidin-2-amine hydrochloride]	6.22 µM
Clc1cc2nc(Nc3cc(-c4ccccc4)n[nH]3)nc(N3CCOCC3)c2o1 [Compound 11, 6-chloro-4-morpholino-N-(5-phenyl-1H-pyrazol-3-yl)furo[3,2-d]pyrimidin-2-amine hydrochloride]	0.0544 µM
c1ccc(-c2cc(Nc3nc(N4CCOCC4)c4oc(CN5CCOCC5)cc4n3)[nH]n2)cc1 [Compound 12, 4-morpholino-6-(morpholinomethyl)-N-(3-phenyl-1H-pyrazol-5-yl)furo[3,2-d]pyrimidin-2-amine hydrochloride]	0.116 µM
c1ccc(-c2cc(Nc3nc(N4CCOCC4)c4oc(CN5CCCCC5)cc4n3)[nH]n2)cc1 [Compound 13]	0.545 µM
CN(C)Cc1cc2nc(Nc3cc(-c4ccccc4)n[nH]3)nc(N3CCOCC3)c2o1 [Compound 14]	0.847 µM
CN1CCN(Cc2cc3nc(Nc4cc(-c5ccccc5)n[nH]4)nc(N4CCOCC4)c3o2)CC1 [Compound 15]	0.071 µM
c1ccc(-c2cc(Nc3nc(N4CCOCC4)c4oc(CN5CCCC5)cc4n3)[nH]n2)cc1 [Compound 16]	1 µM
COCCN(C)Cc1cc2nc(Nc3cc(-c4ccccc4)n[nH]3)nc(N3CCOCC3)c2o1 [Compound 17]	0.303 µM
c1cncc(-c2cc(Nc3nc(N4CCOCC4)c4oc(-c5ccncc5)cc4n3)[nH]n2)c1 [Compound 18, 4-morpholino-6-(4-pyridyl)-N-[5-(3-pyridyl)-1H-pyrazol-3-yl]furo[3,2-d]pyrimidin-2-amine, hydrogen chloride]	0.144 µM

Structure (SMILES)	IC50
c1ccc(-c2cc(Nc3nc(N4CCOCC4)c4oc(-c5ccncc5)cc4n3)[nH]n2)nc1 [Compound 19, 4-morpholino-6-(4-pyridyl)-N-[5-(2-pyridyl)-1H-pyrazol-3-yl]furo[3,2-d]pyrimidin-2-amine, hydrogen chloride]	0.064 µM
Cc1cccc(-c2cc(Nc3nc(N4CCOCC4)c4oc(-c5ccncc5)cc4n3)[nH]n2)n1 [Compound 20, N-[5-(6-methyl-2-pyridyl)-1H-pyrazol-3-yl]-4-morpholino-6-(4-pyridyl)furo[3,2-d]pyrimidin-2-amine, hydrogen chloride]	0.009 µM
Cc1ccnc(-c2cc(Nc3nc(N4CCOCC4)c4oc(-c5ccncc5)cc4n3)[nH]n2)c1 [Compound 21, N-[5-(4-methyl-2-pyridyl)-1H-pyrazol-3-yl]-4-morpholino-6-(4-pyridyl)fnro[3,2-d]pyrimidin-2-amine, hydrogen chloride]	0.027 µM
Cc1cc(-c2cc(Nc3nc(N4CCOCC4)c4oc(-c5ccncc5)cc4n3)[nH]n2)ccn1 [Compound 22, N-(3-(2-methylpyridin-4-yl)-1H-pyrazol-5-yl)-4-morpholino-6-(pyridin-4-yl)furo[3,2-d]pyrimidin-2-amine hydrochloride]	0.027 µM
Cc1cncc(-c2cc(Nc3nc(N4CCOCC4)c4oc(-c5ccncc5)cc4n3)[nH]n2)c1 [Compound 23, N-[5-(5-methyl-3-pyridyl)-1H-pyrazol-3-yl]-4-morpholino-6-(4-pyridyl)furo[3,2-d]pyrimidin-2-amine, hydrogen chloride]	0.195 µM
COc1cccc(-c2cc(Nc3nc(N4CCOCC4)c4oc(-c5ccncc5)cc4n3)[nH]n2)c1 [Compound 24, N-[5-(3-methoxypheny1)-1H-pyrazol-3-yl]-4-morpholino-6-(4-pyridyl)furo[3,2-d]pyrimidin-2-amine, hydrogen chloride]	0.06 µM
FC(F)(F)Oc1cccc(-c2cc(Nc3nc(N4CCOCC4)c4oc(-c5ccncc5)cc4n3)[nH]n2)c1 [Compound 25, 4-morpholino-6-(4-pyridyl)-N-[5-[3-(trifluoromethoxy)phenyl]-1H-pyrazol-3-yl]furo[3,2-d]pyrimidin-2-amine, hydrogen chloride]	0.956 µM
c1ccc(-c2cc(Nc3nc(N4CCOCC4)c4oc(-c5ccccn5)cc4n3)[nH]n2)cc1 [Compound 26, 4-morpholino-N-(5-phenyl-1H-pyrazol-3-yl)-6-(2-pyridyl)furo[3,2-d]pyrimidin-2-amine, hydrogen chloride]	0.0001 µM
Cc1cccc(-c2cc(Nc3nc(N4CCOCC4)c4oc(-c5ccccn5)cc4n3)[nH]n2)c1 [Compound 27, 4-morpholino-N-[5-(m-tolyl)-1H-pyrazol-3-yl]-6-(2-pyridyl)furo[3,2-d]pyrimidin-2-amine, hydrogen chloride]	0.001 µM
c1ccc(-c2cc3nc(Nc4cc(-c5ccncc5)n[nH]4)nc(N4CCOCC4)c3o2)nc1 [Compound 28, 4-morpholino-6-(pyridin-2-yl)-N-(3-(pyridin-4-yl)-1H-pyrazol-5-yl) furo[3,2-d] pyrimidin-2-aminehydrochloride]	0.677 µM
c1ccc(-c2cc(Nc3nc(N4CCOCC4)c4oc(-c5cccnc5)cc4n3)[nH]n2)cc1 [Compound 29, 4-morpholino-N-(5-phenyl-1H-pyrazol-3-yl)-6-(3-pyridyl)furo[3,2-d]pyrimidin-2-amine, hydrogen chloride]	0.001 µM
Cc1cccc(-c2cc(Nc3nc(N4CCOCC4)c4oc(-c5cccnc5)cc4n3)[nH]n2)c1 [Compound 30, 4-morpholino-N-[5-(m-tolyl)-1H-pyrazol-3-yl]-6-(3-pyridyl)furo[3,2-d]pyrimidin-2-amine, hydrogen chloride]	0.0005 µM
c1cncc(-c2cc3nc(Nc4cc(-c5ccncc5)n[nH]4)nc(N4CCOCC4)c3o2)c1 [Compound 31, 4-morpholino-6-(3-pyridyl)-N-[5-(4-pyridyl)-1H-pyrazol-3-yl]furo[3,2-d]pyrimidin-2-amine, hydrogen chloride]	0.369 µM
CN1CCC(c2cc3nc(Nc4cc(-c5ccccc5)n[nH]4)nc(N4CCOCC4)c3o2)CC1 [Compound 32]	0.116 µM
Cc1cccc(-c2cc(Nc3nc(N4CCOCC4)c4oc(C5CCN(C)CC5)cc4n3)[nH]n2)c1 [Compound 33]	0.059 µM
CN1CCC(c2cc3nc(Nc4cc(-c5ccncc5)n[nH]4)nc(N4CCOCC4)c3o2)CC1 [Compound 34, 6-(1-methylpiperidin-4-yl)-4-morpholino-N-(3-(pyridin-4-yl)-1H-pyrazol-5-yl)furo[3,2-d]pyrimidin-2-amine hydrochloride]	0.01 µM

Reference: patent publication US20230146395A1, “Substituted Pyrimidines and Uses Thereof” (Verge Analytics, Inc., priority 2020, published 2023)
